In the supplement of paper PMC10307832:

Columns and labels:
Assay in all cases: relative viability (nuclei count vs DMSO), 5 days (fraction); higher = more cells survive
IPA-3 + Lapatinib = compound: C1=CC=C2C(=C1)C=CC(=C2SSC3=C(C=CC4=CC=CC=C43)O)O [IPA-3] + CS(=O)(=O)CCNCc1ccc(-c2ccc3ncnc(Nc4ccc(OCc5cccc(F)c5)c(Cl)c4)c3c2)o1 [Lapatinib] (partner 2 µM)
Outline: (§1)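 Nuclei were stained with Hoechst during a one-step fixation (final 0.05% Triton X-100, 1% formaldehyde, 1 ug/ml Hoechst) carried out 5 days after dosing, then counted on 4× images. The cells, lung cancer lines in 1536-well plates, had been dosed by pin tool the day after seeding with one drug alone or a fixed anchor-drug dose plus five library-drug doses (not always all listed) in √10 steps. Relative viability is the nuclei count in treated wells divided by that in vehicle wells, and each value is the median of duplicate plates.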

IPA-3 + Pictilisib = compound: C1=CC=C2C(=C1)C=CC(=C2SSC3=C(C=CC4=CC=CC=C43)O)O [IPA-3] + CS(=O)(=O)N1CCN(Cc2cc3nc(-c4cccc5[nH]ncc45)nc(N4CCOCC4)c3s2)CC1 [Pictilisib] (partner 1 µM)
Outline: as §1

RAF265 + Pictilisib = compound: Cn1c(Nc2ccc(C(F)(F)F)cc2)nc2cc(Oc3ccnc(-c4ncc(C(F)(F)F)[nH]4)c3)ccc21 [RAF265] + CS(=O)(=O)N1CCN(Cc2cc3nc(-c4cccc5[nH]ncc45)nc(N4CCOCC4)c3s2)CC1 [Pictilisib] (partner 1 µM)
Outline: as §1

RAF265 + Decitabine = compound: Cn1c(Nc2ccc(C(F)(F)F)cc2)nc2cc(Oc3ccnc(-c4ncc(C(F)(F)F)[nH]4)c3)ccc21 [RAF265] + Nc1ncn([C@H]2C[C@H](O)[C@@H](CO)O2)c(=O)n1 [Decitabine] (partner 2 µM)
Outline: as §1

Cell Line | relative viability (IPA-3 + Lapatinib; first compound 0.2 µM) | relative viability (IPA-3 + Lapatinib; first compound 0.6325 µM) | relative viability (IPA-3 + Lapatinib; first compound 2 µM) | relative viability (IPA-3 + Lapatinib; first compound 6.325 µM) | relative viability (IPA-3 + Lapatinib; first compound 20 µM) | relative viability (IPA-3 + Pictilisib; first compound 0.2 µM) | relative viability (IPA-3 + Pictilisib; first compound 0.6325 µM) | relative viability (IPA-3 + Pictilisib; first compound 2 µM) | relative viability (IPA-3 + Pictilisib; first compound 6.325 µM) | relative viability (IPA-3 + Pictilisib; first compound 20 µM) | relative viability (RAF265 + Pictilisib; first compound 0.01 µM) | relative viability (RAF265 + Pictilisib; first compound 0.03162 µM) | relative viability (RAF265 + Pictilisib; first compound 0.1 µM) | relative viability (RAF265 + Pictilisib; first compound 0.3162 µM) | relative viability (RAF265 + Pictilisib; first compound 1 µM) | relative viability (RAF265 + Decitabine; first compound 0.01 µM) | relative viability (RAF265 + Decitabine; first compound 0.03162 µM) | relative viability (RAF265 + Decitabine; first compound 0.1 µM) | relative viability (RAF265 + Decitabine; first compound 0.3162 µM) | relative viability (RAF265 + Decitabine; first compound 1 µM)
201T | 1.06 | 1.05 | 1.02 | 1.04 | 1.07 | 0.748 | 0.684 | 0.671 | 0.714 | 0.809 | 0.717 | 0.7 | 0.685 | 0.564 | 0.552 | 0.879 | 0.839 | 0.864 | 0.884 | 0.858
A549 | 1.07 | 0.897 | 1.01 | 1 | 0.981 | 0.607 | 0.445 | 0.713 | 0.483 | 0.696 | 0.476 | 0.498 | 0.391 | 0.235 | 0.0846 | 0.226 | 0.232 | 0.259 | 0.318 | 0.155
A-427 | 1.17 | 0.997 | 0.981 | 1.09 | 1.2 | 0.682 | 0.683 | 0.784 | 0.604 | 0.784 | 0.738 | 0.531 | 0.797 | 0.395 | 0.15 | 0.549 | 0.507 | 0.514 | 0.37 | 0.238
ABC-1 | 1.1 | 1.06 | 1.23 | 1.37 | 1.29 | 0.863 | 0.698 | – | 0.803 | 0.75 | 0.808 | 0.58 | 0.608 | 0.525 | 0.458 | 1.16 | 1.04 | 1.07 | 1.17 | 0.979
BEN | 0.749 | 0.673 | 0.832 | 0.735 | 0.677 | 0.6 | 0.596 | 0.66 | 0.697 | 0.601 | 0.627 | 0.696 | 0.69 | 0.625 | 0.55 | 0.835 | 0.722 | 0.769 | 0.737 | 0.655
CAL-12T | 0.919 | 0.651 | 0.761 | 0.643 | 0.756 | 0.442 | 0.494 | 0.397 | 0.441 | 0.348 | 0.359 | 0.407 | 0.293 | 0.278 | 0.223 | – | – | – | – | –
COR-L23 | 1.09 | 0.985 | 1.01 | 1.02 | 0.988 | 1.01 | 0.75 | 0.764 | 0.615 | 0.72 | 0.874 | 0.663 | 0.626 | 0.368 | 0.323 | 0.553 | 0.399 | 0.436 | 0.377 | 0.313
COR-L 105 | 0.384 | 0.374 | 0.359 | 0.325 | 0.304 | 0.465 | 0.422 | 0.393 | 0.416 | 0.351 | 0.487 | 0.316 | 0.383 | 0.292 | 0.307 | 0.688 | 0.773 | 0.599 | 0.497 | 0.436
Calu-6 | 1.15 | 0.958 | 1.05 | 1.01 | 1.05 | 1.06 | 0.872 | 0.933 | 0.736 | 0.848 | 0.87 | 0.594 | 0.462 | 0.306 | 0.209 | – | – | – | – | –
ChaGo-K-1 | – | – | – | – | – | 0.728 | 0.785 | 0.663 | 0.824 | 0.824 | 0.786 | 0.833 | 0.8 | 0.765 | 0.56 | 0.584 | 0.546 | 0.512 | 0.516 | 0.437
EBC-1 | 0.191 | 0.223 | 0.199 | 0.217 | 0.25 | 0.434 | 0.316 | 0.354 | 0.265 | 0.269 | 0.375 | 0.386 | 0.233 | 0.317 | 0.221 | – | – | – | – | –
EKVX | 0.198 | 0.201 | 0.204 | 0.225 | 0.217 | 0.62 | 0.421 | 0.499 | 0.484 | 0.575 | 0.425 | 0.414 | 0.429 | 0.242 | 0.334 | 0.404 | 0.318 | 0.39 | 0.201 | 0.281
EMC-BAC-2 | 0.905 | 0.92 | 0.88 | 0.95 | 0.992 | 0.552 | 0.53 | 0.531 | 0.529 | 0.636 | 0.494 | 0.513 | 0.496 | 0.386 | 0.228 | 1.05 | 0.842 | 0.958 | 0.832 | 0.547
EPLC-272H | 1.01 | 1.01 | 0.915 | 0.881 | 1.04 | 0.309 | 0.338 | 0.273 | 0.343 | 0.401 | 0.35 | 0.349 | 0.311 | 0.237 | 0.191 | 0.409 | 0.34 | 0.371 | 0.243 | 0.231
